Legend:
[1] = molecular target: T1, M1 type muscarinic cholinergic receptor (Rattus norvegicus, UniProt P08482); experiment: Radioligand binding to M1 type muscarinic cholinergic receptor ([^3 H]-pirenzepine); conditions: for IC50: rat brain (except cerebellum and brain stem) crude synaptic membrane, [^3 H]-PZ 1 nM, 60 minutes, 25 °C
T1 construct: crude synaptic membrane specimen prepared from all brains (except cerebellum and brain stem) of rat; from tissue; host or cells: rat brain without cerebellum and brain stem, crude synaptic membranes
T1 sequence (P08482 1-460): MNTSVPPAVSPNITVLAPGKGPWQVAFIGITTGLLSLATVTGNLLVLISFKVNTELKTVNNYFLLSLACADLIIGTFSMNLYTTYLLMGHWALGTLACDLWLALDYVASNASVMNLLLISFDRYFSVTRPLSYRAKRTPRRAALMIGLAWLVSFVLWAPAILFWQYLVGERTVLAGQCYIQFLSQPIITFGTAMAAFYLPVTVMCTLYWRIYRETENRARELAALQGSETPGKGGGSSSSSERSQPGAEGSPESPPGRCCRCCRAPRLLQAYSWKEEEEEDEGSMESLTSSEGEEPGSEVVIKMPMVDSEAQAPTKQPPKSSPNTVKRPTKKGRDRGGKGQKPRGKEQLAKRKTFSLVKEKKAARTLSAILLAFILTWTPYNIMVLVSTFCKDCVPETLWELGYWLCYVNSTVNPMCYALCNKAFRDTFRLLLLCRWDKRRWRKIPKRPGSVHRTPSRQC
Experimental: 1) Radioligand binding experiment to M1 type muscarinic cholinergic receptor
Method: To a crude synaptic membrane specimen prepared from all brains (except cerebellum and brain stem) of rat, [^3 H]-pirenzepine ([^3 H]-PZ, final oncentration: 1 nM) and testing compound were added and the mixture was incubated for 60 minutes at 25 ° C. After stopped the reaction by high-speed suction filtration, the radioactivity on filter was measured with liquid scintillation counter. The specific binding level of [^3 H]-pirenzepine was determined by subtracting the nonspecific binding level in the presence of atropine (1 μM) from total binding level. Putting the [^3 H]-pirenzepine binding in the absence of testing compound on 100, the concentration of compound to decrease by 50 % (IC50 value) was made an index of the binding activity of compound to M1 muscarinic receptor (refer to: J. A. D. M. Toner et al, Life Science, 1987, 40, 1981-1987).

[2] = molecular target: T2, M2 type muscarinic cholinergic receptor (Rattus norvegicus, UniProt P10980); experiment: Radioligand binding to M2 type muscarinic cholinergic receptor ([^3 H]-quinuclidyl benzoate); conditions: rat brain stem crude synaptic membrane, [^3 H]-QNB 0.1 nM
T2 construct: crude synaptic membrane specimen was prepared from the brain stem (medulla oblongata-pons) of rat; from tissue; host or cells: rat brain stem (medulla oblongata-pons), crude synaptic membranes
T2 sequence (P10980 1-466): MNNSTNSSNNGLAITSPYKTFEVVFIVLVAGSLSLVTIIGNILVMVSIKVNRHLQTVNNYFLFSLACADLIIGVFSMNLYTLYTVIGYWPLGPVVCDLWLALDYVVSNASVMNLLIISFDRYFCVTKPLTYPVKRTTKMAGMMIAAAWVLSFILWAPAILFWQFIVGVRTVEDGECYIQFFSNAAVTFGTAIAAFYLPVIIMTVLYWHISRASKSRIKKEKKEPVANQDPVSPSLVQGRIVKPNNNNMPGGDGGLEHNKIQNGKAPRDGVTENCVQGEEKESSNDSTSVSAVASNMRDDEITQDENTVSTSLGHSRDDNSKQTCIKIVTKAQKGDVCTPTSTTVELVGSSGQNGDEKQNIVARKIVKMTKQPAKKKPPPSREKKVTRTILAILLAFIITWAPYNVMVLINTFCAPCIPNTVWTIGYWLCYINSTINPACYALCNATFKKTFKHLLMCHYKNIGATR

[3] = system: pirenzepine-induced amnesia; experiment: Pirenzepine-induced amnesia, step-through type passive avoidance; format: in vivo, Std:ddY strain male mice; conditions: oral; for Reaction latency Mean ± S.E.: 30 or 60 minutes before acquisition trial, pirenzepine-treated mice; for Improvement rate: pirenzepine-induced amnesia
Text: Testing on the pirenzepine-induced amnesia
For the experiment animals, Std:ddY strain male mice with body weight of 24 to 34 g (age in week: 5-6) (Nippon SLC) were used. For the device, a step-through type passive avoidance apparatus (made by Ohara Medical Co., Ltd.) consisting of two […] and dark rooms was used. In the acquisition trial, mouse was placed in the light room and, 10 seconds later, the partitive guillotine door was opened. As soon as the mouse moved into the dark room, the guillotine door was closed and electric shock of 41 to 45 V was given for 1 second through the metal grid bars of the floor. The retention trial was conducted 24 hours later since then. […] The induction of amnesia was performed by fixing a mouse at prone position without anesthetization at 20 minutes before learning acquisition trial and injecting pirenzepine (10 μg/2 μl/mouse bilaterally into cerebral ventricles using a microsyringe. Moreover, a group not to administered with pirenzepine before acquisition trial (non-amnesia comparison group) was also provided. The mice were made to be 12 to 21 animals per group and the testing compound was administered orally at 30 or 60 minutes before acquisition trial. The improvement rate was calculate according to following equation and the results are shown in Table 5 (refer to: M. P. Callfield et at, J. Pharm. Pharmacol. 1983, 35, 131-132). [formula]
The extension of the reaction latency with compound therefore means the improved amnesia.

Std:ddY strain male mice = experiment: In vivo toxicity test, oral administration; conditions: for common symptoms and death / Convulsion (animals affected) / Death (animals) / dose at which convulsion was observed / dose at which death was observed: 3 days
Experimental: For the experiment animals, 4 animals per group of Std:ddY strain male mice with body weightOf 26 to 30 g (age in week: 5) (Nippon SLC) were used. The testing compound was suspended into 5 % solution of arabic gum and administered orally. The common symptoms and death caused with compound were recorded for 3 days after administration.

[4] = system: M1 and M2 muscarinic receptors; experiment: Selectivity to M1 receptor (ratio of IC50 values from the M1 and M2 binding experiments); design: species or system rat
Experimental: 3) Selectivity to M1 receptor
This was determined from the ratio of IC50 values of compound obtained from the binding experiments of M1 and M2 muscarinic receptors. [formula]

SMILES	IC50 [1]	IC50 [2]	Reaction latency Mean ± S.E. ([3]; 3 mg/kg)	Improvement rate ([3]; 3 mg/kg)	Reaction latency Mean ± S.E. ([3]; 10 mg/kg)	Improvement rate ([3]; 10 mg/kg)	common symptoms (in words) (Std:ddY strain male mice)	common symptoms and death (Std:ddY strain male mice; 300 mg/kg)	dose at which convulsion was observed (Std:ddY strain male mice)	dose at which death was observed (Std:ddY strain male mice)	Reaction latency Mean ± S.E. ([3]; 30 mg/kg)	Improvement rate ([3]; 30 mg/kg)	other results
O=C1N(c2ccc(F)cc2)CCN1C1CCCN(Cc2ccccc2)C1 (racemic) [Referential example 8, (±)-1-(4-fluorophenyl)-3-[3-(1-phenylmethyl)piperidyl]-2-imidazolidinone]	80 nM	1090 nM	55.1 ± 20.0 s	-20.7%	153.7 ± 27.6 s	33.2%	convulsive actions were seen	None	600 mg/kg	1200 mg/kg			Convulsion (animals affected) (Std:ddY strain male mice; 600 mg/kg): 3/4; Death (animals) (Std:ddY strain male mice; 1200 mg/kg): 4/4
O=C1N(c2ccc(F)cc2)CCN1[C@@H]1CCCN(Cc2ccccc2)C1 [Example 1, (R)-1-(4-florophenyl)-3-[3-(1-phenylmethyl)piperidyl]-2-imidazolidinone]	30 nM	500 nM	91.5 ± 21.4 s	34.3%	133.0 ± 29.3 s	77.9%		None			166.9 ± 40.2 s	113.6%	affinity to the central M1 muscarinic receptor (in words) [1]: patent affinity to the central M1 muscarinic receptor; in vitro muscarine (M1) activity / affinity relative to S form (Referential example 9) ([1]; compared with S isomer): about 120 times; in vitro muscarine (M1) activity / affinity relative to racemic form (Referential example 8) ([1]; compared with racemic form): about 3 times; selectivity to M1 receptor (in words) ([4]; M1 versus M2 receptor): far higher selectivity to M1 receptor than to M2 receptor; IC50 (M2)/IC50 (M1) ([4]; ratio of IC50 values, selectivity to M1 receptor): 16.7; improvement effect on the amnesia / disturbance of learning (in words) ([3]; listed as R form): could be recognized only for R form with significant difference; improvement effect on the amnesia / disturbance of learning (in words) ([3]; listed as R isomer): very excellent improvement effect on the amnesia; common symptoms and death (Std:ddY strain male mice; 600 mg/kg): None; common symptoms and death (Std:ddY strain male mice; 1200 mg/kg): None; common symptoms and death (Std:ddY strain male mice; 1200 mg/kg, listed as R form): problems did not arise at any rate; common symptoms and death (Std:ddY strain male mice; 1200 mg/kg, listed as compound of the invention): such symptom was not caused even at 1200 mg/kg
O=C1N(c2ccc(F)cc2)CCN1[C@H]1CCCN(Cc2ccccc2)C1 [Referential example 9, (S)-1-(4-fluorophenyl)-3-[3-(1-phenylmethyl)piperidyl]-2-imidazolidinone]	3700 nM	> 10000 nM	63.3 ± 32.1 s	-23.5%	61.5 ± 26.5 s	-25.0%	convulsive actions were seen		≥ 300 mg/kg	≥ 300 mg/kg	113.2 ± 36.2 s	18.1%	Convulsion (animals affected) (Std:ddY strain male mice; 300 mg/kg): 2/4; Death (animals) (Std:ddY strain male mice; 300 mg/kg): 1/4; Death (animals) (Std:ddY strain male mice; 600 mg/kg): 4/4
